Measured values from patent publication US20240208965A1, “HETEROARYL ALKYLENE SUBSTITUTED 2-OXOQUINAZOLINE DERIVATIVES AS METHIONINE ADENOSYLTRANSFERASE 2A INHIBITORS” (IDEAYA BIOSCIENCES, INC., priority 2020, published 2024).

Each compound was assayed against T1, Human MAT2A (Homo sapiens, UniProt P31153) (assay: Phosphate Sensor Fluorescence Assay (Biologic Example B)). Details: MAT2A inhibition, Biological Example B procedure (Compounds 1.029-1.070); 5.8 nM MAT2A, 500 uM L-methionine, 500 uM ATP.
T1 construct: Human MAT2A: Cepter, amino acids 1-395 Clone ID 334, lot 00023-148; purchased Cepter clone ID 334, lot 00023-148
T1 sequence (P31153 whole entry, the tested form may be a part): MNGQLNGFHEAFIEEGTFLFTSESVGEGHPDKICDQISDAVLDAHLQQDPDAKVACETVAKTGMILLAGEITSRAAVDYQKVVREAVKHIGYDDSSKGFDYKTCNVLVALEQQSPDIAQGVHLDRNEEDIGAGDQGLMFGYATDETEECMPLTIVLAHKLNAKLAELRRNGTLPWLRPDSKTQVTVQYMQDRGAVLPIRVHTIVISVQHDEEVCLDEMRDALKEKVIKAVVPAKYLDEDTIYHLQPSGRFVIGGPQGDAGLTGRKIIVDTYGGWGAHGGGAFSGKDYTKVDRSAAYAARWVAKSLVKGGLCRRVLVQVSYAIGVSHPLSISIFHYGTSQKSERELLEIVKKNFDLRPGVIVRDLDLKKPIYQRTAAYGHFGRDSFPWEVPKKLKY
Format: biochemical
Method: The ability of the compound of present disclosure to inhibit MAT2A enzyme was determined using a Phosphate Sensor Fluorescence Assay described below.
Biologic Example B. Phosphate Sensor Fluorescence Assay
MAT2A enzyme is incubated with a test compound in DMSO or DMSO and its substrates (L-methionine and ATP) in a microtiter plate. The enzymatic reaction is stopped by the addition of Working Phosphate Sensor Mixture. The plate is analyzed for fluorescence at 450 nm. The high control (DMSO with enzyme and its substrates) gives high fluorescence which represents no inhibition of enzymatic activity while the low control (DMSO with MAT2A substrates and no enzyme) gives low fluorescence which represents full inhibition of enzymatic activity.
• Human MAT2A: Cepter, amino acids 1-395 Clone ID 334, lot 00023-148 • Tris, pH 7.5: Invitrogen cat #15567-027 • KCl: Ambion cat #AM9640G • MgCl2: Ambion cat #AM9530G • Brij-35: Sigma cat B4184-10ML • DTT: Goldbio cat #DTT100 • BGG: Sigma cat #G5009-25G • PNP: Novus Biologicals cat #NBP1-50872 • 7-MEG: Cayman Chemical cat #15988 • L-Methionine: JTBaker P/N 2085-05 • ATP: Promega P/N V915B • Phosphate Sensor: Invitrogen cat #PV4407 • EDTA: Life Tech cat #15575-038 • Assay plate: 384-well black polypropylene plate: Corning P/N 3573
• Assay Buffer: 50 mM Tris, pH 7.5/50 mM KCl/10 mM MgCl2/0.01% Brij-35/1 mM DTT/0.01% BGG/40 nM PNP/6 uM 7-MEG • MAT2A: 5.8 nM MAT2A (1-395), Cepter, clone ID 334, lot 00023-148 before the addition of Working Phosphate Sensor Mixture • L-methionine: 500 uM before the addition of Working Phosphate Sensor Mixture • ATP: 500 uM before the addition of Working Phosphate Sensor Mixture
For the assay, a mixture of 1 mM L-methionine/1 mM ATP (2× final pre-stopped concentration) in assay buffer; MAT2A (2× final pre-stopped concentration) in Assay Buffer and Working Phosphate Sensor Mixture (1.5 uM Phosphate Sensor/30 mM EDTA in Assay Buffer, which is 3× final concentrations) were prepared. Test compounds or DMSO were added to the appropriate well using a Beckman Coulter Echo 550 acoustic liquid handler. 10 μL/well of Assay Buffer was added to the wells corresponding to the negative control and 10 μL/well of MAT2A was added to all the wells except for those corresponding to the negative control. After incubating the plate at room temperature for 15 minutes, 10 μL/well of the 1 mM L-methionine/1 mM ATP mixture was added to all wells. The plate was centrifuged at 1000 rpm for 1 minute and then incubated at room temperature for 1 hour. 10 μL of the Working Phosphate Sensor Mixture was added to all wells and the plate was centrifuged at 1000 rpm for 1 minute. The plate was read for fluorescence at 450 nm after exciting at 430 nm on a Tecan Spark microplate reader.
Percent inhibition was calculated in Chemical and Biological Information System (CBIS), (ChemInnovation Software Inc.). Curves were fitted by CBIS as % inhibition vs. log [compound concentration] using a 4-parameter inhibition model.
Fit=(A+((B−A)/(1+((C/x)^D))))
Compounds 1.001-1.028 were tested using the procedure described in Bioogical Example A, described above. Compounds 1.029-1.070 were tested using the procedure described in Biological Example B, described above.

SMILES | IC50
CCC(c1cnc[nH]1)n1c(=O)nc(N(C)C)c2ccc(C(F)(F)F)cc21 (stereo not drawn) [1.033, 1-(1-(1H-imidazol-5-yl)propyl)-4-(dimethylamino)-7-(trifluoromethyl)quinazolin-2(1H)-one] | 0.2 to 0.5 µM
CN(C)c1nc(=O)n([C@@H](c2c[nH]cn2)C(F)F)c2nc(C(F)(F)F)ccc12 (single isomer, unassigned) [1.063] | 1 to 10 µM
C[C@@H](c1nc[nH]n1)n1c(=O)nc(N(C)C)c2ccc(Cl)cc21 (single isomer, unassigned) [1.061] | 0.5 to 1 µM
CN(C)c1nc(=O)n(C(c2cnc[nH]2)C2CC2)c2cc(C(F)(F)F)ccc12 (stereo not drawn) [1.045, 1-(Cyclopropyl(1H-imidazol-5-yl)methyl)-4-(dimethylamino)-7-(trifluoromethyl)quinazolin-2(1H)-one] | 0.2 to 0.5 µM
CN(C)c1nc(=O)n(CC2CNC(=O)C2)c2cc(C(F)(F)F)ccc12 (stereo not drawn) [1.057, 4-(Dimethylamino)-1-((5-oxopyrrolidin-3-yl)methyl)-7-(trifluoromethyl)quinazolin-2(1H)-one] | 0.5 to 1 µM
CN(C)c1nc(=O)n(Cc2cccnc2)c2nc(C(F)(F)F)ccc12 [1.053, 4-(Dimethylamino)-1-(pyridin-3-ylmethyl)-7-(trifluoromethyl)pyrido[2,3-d]pyrimidin-2(1H)one] | 1 to 10 µM
CN(C)c1nc(=O)n(Cc2cn(C)cn2)c2cc(C(F)(F)F)ccc12 [1.058, 4-(Dimethylamino)-1-((1-methyl-1H-imidazol-4-yl)methyl)-7-(trifluoromethyl)quinazolin-2(1H)-one] | 1 to 10 µM
Cc1nc[nH]c1Cn1c(=O)nc(N(C)C)c2ccc(C(F)(F)F)cc21 [1.050, 4-(Dimethylamino)-1-((4-methyl-1H-imidazol-5-yl)methyl)-7-(trifluoromethyl)quinazolin-2(1H)-one] | 1 to 10 µM
CCN(C)c1nc(=O)n([C@H](C)c2cnc[nH]2)c2cc(C(F)(F)F)ccc12 (single isomer, unassigned) [1.036] | 0.01 to 0.2 µM
C[C@@H](c1cnc[nH]1)n1c(=O)nc(N2CCC2)c2ccc(Br)cc21 (single isomer, unassigned) [1.040] | 0.01 to 0.2 µM
CC(c1c[nH]cn1)n1c(=O)nc(N2CCC2)c2ccc(Br)cc21 (stereo not drawn) [1.032, 1-(1-(1H-imidazol-4-yl)ethyl)-4-(azetidin-1-yl)-7-bromoquinazolin-2(1H)-one] | 0.01 to 0.2 µM
CC[C@H](c1cnc[nH]1)n1c(=O)nc(N(C)C)c2ccc(C(F)(F)F)cc21 (single isomer, unassigned) [1.041] | 0.01 to 0.2 µM
CN(C)c1nc(=O)n(Cc2ccncc2)c2nc(C(F)(F)F)ccc12 [1.054, 4-(Dimethylamino)-1-(pyridin-4-ylmethyl)-7-(trifluoromethyl)pyrido[2,3-d]pyrimidin-2(1H)one] | 1 to 10 µM
CN(C)c1nc(=O)n([C@H](c2c[nH]cn2)C(F)F)c2nc(C(F)(F)F)ccc12 (single isomer, unassigned) [1.064] | 0.2 to 0.5 µM
CNc1nc(=O)n(Cc2cocn2)c2cc(C(F)(F)F)ccc12 [1.066, 4-(Methylamino)-1-(oxazol-4-ylmethyl)-7-(trifluoromethyl)quinazolin-2(1H)-one] | 0.01 to 0.2 µM
C[C@@H](c1cc[nH]n1)n1c(=O)nc(N)c2ccc(Cl)cc21 (single isomer, unassigned) [1.070] | 0.2 to 0.5 µM
CCN(C)c1nc(=O)n([C@@H](C)c2cnc[nH]2)c2cc(C(F)(F)F)ccc12 (single isomer, unassigned) [1.035] | 0.01 to 0.2 µM
CN(C)c1nc(=O)n(Cc2cnc[nH]2)c2cc(Cl)ccc12 [1.034, 1-((1H-imidazol-5-yl)methyl)-7-chloro-4-(dimethylamino)quinazolin-2(1H)-one] | 0.2 to 0.5 µM
CC[C@@H](c1cnc[nH]1)n1c(=O)nc(N(C)C)c2ccc(C(F)(F)F)cc21 (single isomer, unassigned) [1.042] | 0.2 to 0.5 µM
CN(C)c1nc(=O)n(Cc2cncn2C)c2cc(C(F)(F)F)ccc12 [1.055, 4-(dimethylamino)-1-((1-methyl-1H-imidazol-5-yl)methyl)-7-(trifluoromethyl)quinazolin-2(1H)-one] | 0.2 to 0.5 µM
CC(C)N(C)c1nc(=O)n([C@@H](C)c2cnc[nH]2)c2cc(C(F)(F)F)ccc12 (single isomer, unassigned) [1.037] | 0.01 to 0.2 µM
CNc1nc(=O)n(Cc2cnco2)c2cc(C(F)(F)F)ccc12 [1.065, 4-(Methylamino)-1-(oxazol-5-ylmethyl)-7-(trifluoromethyl)quinazolin-2(1H)-one] | 0.5 to 1 µM
CNc1nc(=O)n(Cc2cscn2)c2cc(C(F)(F)F)ccc12 [1.067, 4-(Methylamino)-1-(thiazol-4-ylmethyl)-7-(trifluoromethyl)quinazolin-2(1H)-one] | 1 to 10 µM
C[C@H](c1cc[nH]n1)n1c(=O)nc(N)c2ccc(Cl)cc21 (single isomer, unassigned) [1.069] | 0.01 to 0.2 µM
CNc1nc(=O)n(Cc2cnsc2)c2cc(C(F)(F)F)ccc12 [1.029, 1-(Isothiazol-4-ylmethyl)-4-(methylamino)-7-(trifluoromethyl)quinazolin-2(1H)-one] | 1 to 10 µM
CN(C)c1nc(=O)n(Cc2nc[nH]n2)c2cc(C(F)(F)F)ccc12 [1.051, 1-((1H-1,2,4-Triazol-3-yl)methyl)-4-(dimethylamino)-7-(trifluoromethyl)quinazolin-2(1H)-one] | 0.01 to 0.2 µM
C[C@H](c1cnc[nH]1)n1c(=O)nc(N2CCC2)c2ccc(Br)cc21 (single isomer, unassigned) [1.039] | 0.2 to 0.5 µM

The remaining lines, values ahead:

IC50 | SMILES
0.01 to 0.2 µM | CN(C)c1nc(=O)n(Cc2cnc[nH]2)c2cc(C(F)(F)F)ccc12 [1.030, 1-((1H-Imidazol-5-yl)methyl)-4-(dimethylamino)-7-(trifluoromethyl)quinazolin-2(1H)-one]
0.01 to 0.2 µM | C[C@H](c1nc[nH]n1)n1c(=O)nc(N(C)C)c2ccc(Cl)cc21 (single isomer, unassigned) [1.060]
0.01 to 0.2 µM | CN(C)c1nc(=O)n(Cc2ccccn2)c2nc(C(F)(F)F)ccc12 [1.052, 4-(Dimethylamino)-1-(pyridin-2-ylmethyl)-7-(trifluoromethyl)pyrido[2,3-d]pyrimidin-2(1H)-one]
0.01 to 0.2 µM | CC(c1cnc[nH]1)n1c(=O)nc(N(C)C)c2ccc(C(F)(F)F)nc21 (stereo not drawn) [1.046, 1-(1-(1H-Imidazol-5-yl)ethyl)-4-(dimethylamino)-7-(trifluoromethyl)pyrido[2,3-d]pyrimidin-2(1H)-one]
< 0.01 µM | C[C@@H](c1cnc[nH]1)n1c(=O)nc(N(C)C)c2ccc(Br)cc21 (single isomer, unassigned) [1.044]
0.01 to 0.2 µM | C[C@H](c1cnc[nH]1)n1c(=O)nc(N(C)C)c2ccc(Br)cc21 (single isomer, unassigned) [1.043]
0.01 to 0.2 µM | CN(C)c1nc(=O)n(Cc2ccn[nH]2)c2cc(Cl)ccc12 [1.056, 1-((1H-pyrazol-5-yl)methyl)-7-chloro-4-(dimethylamino)quinazolin-2(1H)-one]
0.01 to 0.2 µM | C[C@@H](c1cnc[nH]1)n1c(=O)nc(N(C)C)c2ccc(Cl)cc21 (single isomer, unassigned) [1.048]
< 0.01 µM | CC(c1cc[nH]n1)n1c(=O)nc(N(C)C)c2ccc(Cl)cc21 (racemic) [1.062, 1-(1-(1H-pyrazol-3-yl)ethyl)-7-chloro-4-(dimethylamino)quinazolin-2(1H)-one]
0.01 to 0.2 µM | CC(C)N(C)c1nc(=O)n([C@H](C)c2cnc[nH]2)c2cc(C(F)(F)F)ccc12 (single isomer, unassigned) [1.038]
< 0.01 µM | C[C@H](c1cc[nH]n1)n1c(=O)nc(N(C)C)c2ccc(Cl)cc21 (single isomer, unassigned) [1.059]
< 0.01 µM | C[C@H](c1cnc[nH]1)n1c(=O)nc(N(C)C)c2ccc(Cl)cc21 (single isomer, unassigned) [1.047]
